Type in all cases: cell-based
Data set [1] deals with Giardia intestinalis trophozoites. Put plainly: In vitro assay on trophozoite form of Giardia intestinalis (resazurin, 48 h). The note with it: for IC50: Giardia duodenalis, trophozoites, 48 h, read-out: G. intestinalis IC50. How it is done: Trophozoites of Giardia (strain ATCC® 203333) were grown in modified TYI-S-33 medium at pH 7.0, supplemented with 10% heat-inactivated fetal calf serum and 0.5 g bovine bile (Sigma-Aldrich, St Louis, MO, USA), in 20 mL screw-cap culture vials. The assay was carried out according to a previously described method. Detachment of trophozoites for preparation of inoculant was achieved by chilling the cultures on ice for 20 min. Trophozoites (5 × 10^4 parasites/well) were cultured in 96-well plastic plates (Sarstedt, Nümbrecht, Germany). Compounds were dissolved in DMSO. […] To evaluate cell viability, the fluorescence intensity (535 nm-excitation wavelength- and 590 nm-emission wavelength) was determined with a fluorimeter Infinite 200 (Tecan i-Control, Tecan Ibérica Instrumentation S.L., Barcelona, Spain) to calculate the growth inhibition rate (%). All tests were carried out in triplicate. Metronidazole was used as a reference drug. […] All values were expressed as means ± standard error of the mean (S.E.M.). Statistically significant differences between treated and control samples were tested by one-way analysis of variance (ANOVA).

Data set [2] can be described thus: Cytotoxicity assay on murine macrophages (resazurin, 48 h). To be noted: mouse, J774 cell line, 48 h. Here is the method: (§1) A., Madrid, Spain) at 37 °C and 5% CO2 air atmosphere. The assay was carried out according to a previously described method. […] Growth controls and signal-to-noise were also included. Afterward, a volume of 20 μL of 2.5 mM resazurin solution in PBS was added, and plates were placed again in the incubator for another 3 h to evaluate cell viability. The reduction of resazurin was determined by fluorometry as in the promastigote assay. Each concentration was assayed in triplicate. […] All values were expressed as means ± standard error of the mean (S.E.M.). Statistically significant differences between treated and control samples were tested by one-way analysis of variance (ANOVA).
A general note: Resazurin is reduced to fluorescent resorufin, in cell work by metabolically active cells.

For data set [3], the system named is murine macrophage J774 cell line. Described as above. The note with it: for SI: selectivity index (CC50/IC50): J774 macrophages vs G. intestinalis, pure flavonoids (Table 4). How it is done:
as §1

Setting [4] is: J774 macrophage cell line, pure flavonoids.

Read-outs that look alike come from different tables or passages of the source.

From PMC9695682, “Flavonoids from Piper Species as Promising Antiprotozoal Agents against Giardia intestinalis: Structure-Activity Relationship and Drug-Likeness Studies” (Pharmaceuticals, 2022) come the findings set out here.

A word on the IC50: it is the concentration at which inhibition is half-maximal. A word on the CC50: it is the concentration giving 50% cytotoxicity.

As for `COc1cc(O)cc(O)c1C(=O)/C=C/c1cccc(O)c1` [Compound 1, 2′,4′,3-Trihydroxy-6′-methoxychalcone], the IC50 in data set [1] (pure flavonoids) worked out at 7 ± 0.1 µM. Besides, the CC50 at 48 h in data set [2] (setting [4]) was determined as 12.9 ± 0.2 µM. Also, in data set [3], the “SI: selectivity index (CC50/IC50)” value is 1.8.
In the case of `COc1cc(/C=C/C(=O)c2c(O)cc(O)cc2OC)ccc1O` [Compound 14, 2′,4′,4-trihydroxy-3,6′-dimethoxychalchone], the half-maximal inhibitory concentration (IC50) in data set [1] (pure flavonoids) amounted to 10.4 ± 0.2 µM. The same compound had a CC50 at 48 h in data set [2] (setting [4]) of 16.5 ± 0.03 µM. Also, the “SI: selectivity index (CC50/IC50)” value in data set [3] was 1.6.
Consider `Cc1ncc([N+](=O)[O-])n1CCO` [Metronidazole, reference compound], for which the IC50 in data set [1] (extract, fractions and sub-fractions of Piper delineatum leaves) was 0.4 ± 0.1 µg/mL; in data set [1] (pure flavonoids), 2.5 ± 0.1 µM. Moreover, the CC50 at 48 h in data set [2] (J774 macrophage cell line, extract, fractions and sub-fractions) is 233 µg/mL; in data set [2] (setting [4]), > 584 µM. In addition, the “SI: selectivity index (CC50/IC50)” value in data set [3] is >233.
As for `COc1cc(O)cc(/C=C/C(=O)c2c(O)cc(O)cc2OC)c1` [Compound 3, 2′,4′,3-Trihydroxy-6′,5-dimethoxychalcone], in data set [1] (pure flavonoids), the IC50 was found to be 6 ± 0.3 µM. In data set [2] (setting [4]), this compound had a CC50 at 48 h of 12 ± 0.1 µM.
On to `COc1cccc(/C=C/C(=O)c2c(O)cc(O)cc2OC)c1` [Compound 7, 2′,4′-dihydroxy-3,6′-dimethoxychalchone], for which the IC50 in data set [1] (pure flavonoids) was 4.7 ± 0.1 µM. For the same compound, the CC50 at 48 h in data set [2] (setting [4]) amounted to 15.7 ± 0.2 µM.
As for `COc1cc(O)cc(O)c1C(=O)CCc1ccccc1` [Compound 16, uvangoletin], the IC50 in data set [1] (pure flavonoids) was 70.5 ± 0.3 µM. Besides, in data set [2] (setting [4]), the half-maximal cytotoxic concentration (CC50) at 48 h is > 367 µM. Also, the “SI: selectivity index (CC50/IC50)” value in data set [3] is >5.2.
For `COc1cccc(/C=C/C(=O)c2c(OC)cc(O)c(OC)c2O)c1` [Compound 10, 2′,4′-dihydroxy-3,3′,6′-trimethoxychalcone], the concentration for half-maximal inhibition (IC50) in data set [1] (pure flavonoids) was 32.7 ± 1.3 µM. The same compound came in with a CC50 at 48 h in data set [2] (setting [4]) of 44.2 ± 0.7 µM. For the same compound, the “SI: selectivity index (CC50/IC50)” value in data set [3] is given as 1.4.
Turning to `COc1cc(O)c2c(c1)O[C@H](c1ccc(O)cc1)CC2=O` [Compound 23, sakuranetin], the IC50 in data set [1] (pure flavonoids) worked out at 52.4 ± 2.1 µM. Also, it took 184 ± 2.3 µM to reach half-maximal cytotoxicity in data set [2] (pure flavonoids) (CC50 at 48 h). For the same compound, the “SI: selectivity index (CC50/IC50)” value in data set [3] came to 3.5.
As for `COc1cccc(/C=C/C(=O)c2c(O)cc(OC)cc2OC)c1` [Compound 9, 2′-hydroxy-3,4′,6′-trimethoxychalchone], in data set [1] (pure flavonoids), the IC50 was 10.8 ± 0.1 µM. In data set [2] (setting [4]), this compound returned a CC50 at 48 h of 22.6 ± 0.5 µM.
As to `COc1cc(O)cc(O)c1C(=O)/C=C/c1ccccc1` [Compound 8, 2′,4′-dihydroxy-6′-methoxychalchone], the IC50 in data set [1] (pure flavonoids) worked out at 9.6 ± 0.2 µM. The CC50 at 48 h in data set [2] (pure flavonoids) came to 37.8 ± 1.1 µM.
Take `COc1cc(OC)c(C(=O)/C=C/c2ccccc2)c(O)c1O` [Compound 12, 2′,3′-dihydroxy-4′,6′-dimethoxychalchone]: in data set [1] (pure flavonoids), the IC50 is 7.3 ± 0.6 µM. Besides, the midpoint of cytotoxicity in data set [2] (setting [4]), the CC50 at 48 h, lay at 25.3 ± 0.4 µM. In data set [3], the “SI: selectivity index (CC50/IC50)” value amounted to 3.5.
The matching figures for `COc1cc(O)cc(/C=C/C(=O)c2c(OC)cc(OC)c(O)c2O)c1` [Compound 11, 2′,3′,5-trihydroxy-4′,6′,3-trimethoxychalcone]: 22.5 ± 0.8 µM, 48.5 ± 0.8 µM and 2.2.
For `COc1cccc(C2CC(=O)c3c(OC)cc(OC)cc3O2)c1` (stereo not drawn) [Compound 24, 5,7,3′-trimethoxyflavanone], in data set [1] (pure flavonoids), the IC50 was 49.3 ± 0.9 µM. For the same compound, the CC50 at 48 h in data set [2] (setting [4]) came out at 144 ± 2.3 µM. In addition, the “SI: selectivity index (CC50/IC50)” value in data set [3] amounted to 2.9.
With `COc1cc(O)cc(/C=C/C(=O)c2c(O)cc(OC)cc2OC)c1` [Compound 4, 2′,3-Dihydroxy-4′,6′,5-trimethoxychalcone], the IC50 in data set [1] (pure flavonoids) is 0.061 ± 0.001 µM. Also, in data set [1] (IC50 ratio to the reference drug metronidazole), the “Antiparasitic potency relative to metronidazole” value was found to be 41 fold. In data set [2] (setting [4]), this compound returned a CC50 at 48 h of 14.2 ± 0.2 µM. The “SI: selectivity index (CC50/IC50)” value in data set [3] turned out to be 233.
EtOH: the “Macrophages CC50” value in data set [3] came to 7.1 ± 0.6 µg/mL.
With `COc1cc(O)c(OC)c(O)c1C(=O)/C=C/c1cccc(O)c1` [Compound 2, 2′,4′,3-Trihydroxy-3′,6′-dimethoxychalcone], in data set [1] (pure flavonoids), the IC50 was 47.7 ± 1.2 µM. The same compound returned a CC50 at 48 h in data set [2] (setting [4]) of 184 ± 2.6 µM. Also, the “SI: selectivity index (CC50/IC50)” value in data set [3] is on record as 3.9.
